Results taken from patent publication US20100160295A1, “TREATMENT OF RESTLESS LEG SYNDROME AND SLEEP DISORDERS” (SYNOSIA THERAPEUTICS, priority 2008, published 2010).

Legend:
Subjects with RLS = assay: Medical Outcomes Study (MOS) Sleep Scale, placebo-controlled study in RLS subjects; type: in vivo, human
Method: (§1) The study multi-centre, randomized, double-blind, parallel-groups, placebo-controlled study with 2 treatment arms, oral HPPD inhibitor (2-(2-nitro-4-trifluoromethylbenzoyl)-1,3-cyclohexanedione) and placebo. Subjects were randomized to either treatment with an HPPD inhibitor or placebo in a 2:1 ratio. The subjects were dosed with 4 mg on day 1, and 2 mg/day on days 2-14. The total duration of treatment with study drug for each subject was 14 consecutive days ending at the day of the final sleep lab assessment (Day 14), with a follow-up examination 29 days after Baseline.
Efficacy parameters were changes between Baseline and end of treatment in objective measures of Periodic Limb Movements (PLM) and sleep efficiency and in investigator evaluations of severity of RLS symptoms as well as in subject's report on severity of RLS symptoms, sleep disturbances and depressive feelings. Parameters measured included: • Periodic Limb Movement (PLM) Index, defined as the number of PLM events occurring during time-in-bed (PLMI/h TIB) • Periodic Limb Movements during Sleep Index, defined as the number of PLMs per hour of total sleep time (PLMSI/h TST) • PLM arousal index, defined as the number of PLM with arousals per hour of total sleep time (PLMSAI/h TST) • Periodic Limb Movements during wakefulness index, defined as the number of PLMs per hour occurring during wakefulness within time-in-bed (PLMWI/h TIB) • Sleep Efficiency (SE) expressed as the percentage total sleep time (TST) of total time in bed (TIB) • Total Sleep Time (TST) • Total number of arousals per TST • Sleep latency • Restless Legs Scale—6 items (RLS-6) (Kohnen et al, 2004) • IRLS total score change from start of treatment to end • Time to requiring rescue medication (defined as time to dropout due to the need of rescue medication for intolerable RLS symptoms) • Physicians' Global Impression, rated by the Clinical Global Impressions Scale (CGI): severity, change and treatment effect • CGI responders defined as the proportion of subjects who improved “much” or “very much” on CGI item “change”. • Patients' Global Impression (PGI) scale Item 1 (efficacy) • Medical Outcomes Study (MOS) Sleep Scale • Beck Depression Inventory (BDI) • In addition, a patient diary was to be completed between days 8 and 15 • HPPD inhibitor plasma concentrations at Baseline, end of treatment and follow-up • Tyrosine plasma concentration at Baseline, end of treatment and follow-up.
Subjects with RLS received either placebo (7 subjects) or an HPPD inhibitor (13 subjects) given as 4 mg on day 1, then 2 mg per day for days 2-14 of the trial. Various parameters relevant to RLS were monitored during the course of treatment, in particular the quality of their sleep patterns using a standard assessment scale (Medical Outcomes Study (MOS) Sleep Scale). Individuals were asked to complete a standard evaluation of their ‘normal’ sleep experience at the start of the trial (Baseline) and again at the end of treatment (EoT), with the various parameters scored according to the attached document.
The MOS Sleep Scale is a comprehensive subject completed sleep questionnaire consisting of 12 items (Hays and Stewart, 1992; Hays et al., 2005). Each item measures a unique aspect or characteristic of sleep. Overall, the MOS Sleep Scale measures the following:
All items, except for item 2, were transformed in a ‘0-100’ scale.
For the analysis of the MOS sleep scale, the following subscales were determined as means of the involved items (in part, after reversing the ratings in the ‘0-100’ scale, denoted by (R) in the item sequence):
Subjects self-reported the length of time it took for them to fall asleep and the average number of hours of sleep each night. Scores for all other items range from 1 (all of the time) to 6 (none of the time).
The MOS Sleep Scale was completed at Baseline (Visit 2) and final examination (Visit 3).

[1] = tested on: moderate to severe idiopathic RLS subjects; assay: Patients' Global Impression (PGI) scale Item 1 (efficacy); type: in vivo, human
Method: as §1
The objective of this exploratory study was to show proof-of-concept of therapy with an exemplary HPPD inhibitor in moderate to severe idiopathic RLS subjects.
Efficacy parameters were changes between Baseline and end of treatment in objective measures of Periodic Limb Movements (PLM) and sleep efficiency and in investigator evaluations of severity of RLS symptoms as well as in subject's report on severity of RLS symptoms, sleep disturbances and depressive feelings. […]

[2] = EoT, PPS n = 13, 4 mg day 1, 2 mg/day days 2-14
[3] = EoT, PPS n = 13, item 2 raw scores
[4] = M-ITT, HPPD inhibitor vs placebo
[5] = change from Baseline to EoT, PPS n = 13

With `O=C1CCCC(=O)C1C(=O)c1ccc(C(F)(F)F)cc1[N+](=O)[O-]` [HPPD Inhibitor, 2-(2-nitro-4-trifluoromethylbenzoyl)-1,3-cyclohexanedione] the “MOS Sleep Problems Index I, absolute, M ± SD” value (Subjects with RLS; [2]) was 36.7 ± 16.3, the “MOS Sleep Problems Index II, absolute, M ± SD” value (Subjects with RLS; [2]) was 37.9 ± 16.8 and the “MOS Snoring Scale, absolute, M ± SD” value (Subjects with RLS; [2]) was 20.0 ± 16.3. For the same molecule, the “MOS Somnolence Scale, absolute, M ± SD” value (Subjects with RLS; [2]) was 24.6 ± 19.7, the “MOS Sleep Disturbance Scale, absolute, M ± SD” value (Subjects with RLS; EoT, PPS n = 13, 4 mg day 1, 2 mg/day days 2-14, 0-100 scale, higher = stronger sleep problems) was 41.8 ± 16.7 and the “MOS Sleep Adequacy Scale, absolute, M ± SD” value (Subjects with RLS; EoT, PPS n = 13, 4 mg day 1, 2 mg/day days 2-14, higher values = better) was 46.9 ± 25.9. For the same molecule, the “MOS Sleep Quantity, absolute, Median” value (Subjects with RLS; [3]) was 6.0 h, the “MOS Sleep Quantity, absolute, Range” value (Subjects with RLS; [3]) was 4.0 to 8.0 h and the “MOS Sleep Quantity, absolute, M ± SD” value (Subjects with RLS; EoT, PPS n = 13, item 2 raw scores, 4 mg day 1, 2 mg/day days 2-14) was 6.1 ± 1.0 h. The “MOS sleep adequacy: difference HPPD inhibitor—placebo, LS mean” value (Subjects with RLS; M-ITT, 95%-CI: 1.30, 52.64, p=0.0405 two-sided from ANCOVA) was 26.97, the “MOS sleep disturbance: difference HPPD inhibitor—placebo, LS mean” value (Subjects with RLS; M-ITT, 95%-CI: −35.53, 0.93, p=0.0616 two-sided from ANCOVA) was −17.30 and the “MOS sleep problems index II: difference HPPD inhibitor—placebo, LS mean” value (Subjects with RLS; M-ITT, 95%-CI: −36.18, 2.61, p=0.0857 two-sided from ANCOVA) was −16.78. The “MOS sleep problems index I: difference HPPD inhibitor—placebo, LS mean” value (Subjects with RLS; M-ITT, 95%-CI: −37.80, 0.31, p=0.0534 two-sided from ANCOVA) was −18.75, the “MOS sleep adequacy: effect size d” value (Subjects with RLS; [4]) was 0.50 and the “MOS sleep disturbance: effect size d” value (Subjects with RLS; [4]) was 0.55. The “MOS sleep problems index I: effect size d” value (Subjects with RLS; [4]) was 0.54, the “MOS sleep problems index II: effect size d” value (Subjects with RLS; [4]) was 0.41 and the “MOS Short of Breath Scale, change, M ± SD” value (Subjects with RLS; [5]) was −7.7 ± 19.2. The “MOS Short of Breath Scale, change, Median” value (Subjects with RLS; [5]) was 0.0, the “MOS Short of Breath Scale, change, Range” value (Subjects with RLS; [5]) was −40.0-20.0 and the “MOS Sleep Adequacy Scale, change, M ± SD” value (Subjects with RLS; [5]) was 26.9 ± 35.5. The “MOS Sleep Adequacy Scale, change, Median” value (Subjects with RLS; [5]) was 30.0, the “MOS Sleep Adequacy Scale, change, Range” value (Subjects with RLS; [5]) was −50.0-80.0 and the “MOS Sleep Disturbance Scale, change, M ± SD” value (Subjects with RLS; [5]) was −35.0 ± 27.5. For the same molecule, the “MOS Sleep Disturbance Scale, change, Median” value (Subjects with RLS; [5]) was −46.3, the “MOS Sleep Disturbance Scale, change, Range” value (Subjects with RLS; [5]) was −68.8-11.3 and the “MOS Sleep Problems Index I, change, M ± SD” value (Subjects with RLS; [5]) was −23.8 ± 20.3. For the same molecule, the “MOS Sleep Problems Index I, change, Median” value (Subjects with RLS; [5]) was −20.0, the “MOS Sleep Problems Index I, change, Range” value (Subjects with RLS; [5]) was −60.0-3.3 and the “MOS Sleep Problems Index II, change, M ± SD” value (Subjects with RLS; [5]) was −25.5 ± 19.9. The “MOS Sleep Problems Index II, change, Median” value (Subjects with RLS; [5]) was −23.9, the “MOS Sleep Problems Index II, change, Range” value (Subjects with RLS; [5]) was −61.7-−1.7 and the “MOS Sleep Quantity, change, M ± SD” value (Subjects with RLS; [5]) was 1.8 ± 1.1 h. The “MOS Sleep Quantity, change, Median” value (Subjects with RLS; [5]) was 2.0 h, the “MOS Sleep Quantity, change, Range” value (Subjects with RLS; [5]) was 0.0 to 3.0 h and the “MOS Snoring Scale, change, M ± SD” value (Subjects with RLS; [5]) was −6.2 ± 15.0. For the same molecule, the “MOS Snoring Scale, change, Median” value (Subjects with RLS; [5]) was 0.0, the “MOS Snoring Scale, change, Range” value (Subjects with RLS; [5]) was −40.0-20.0 and the “MOS Somnolence Scale, change, M ± SD” value (Subjects with RLS; [5]) was −10.3 ± 16.0. For the same molecule, the “MOS Somnolence Scale, change, Median” value (Subjects with RLS; [5]) was −13.3, the “MOS Somnolence Scale, change, Range” value (Subjects with RLS; [5]) was −33.3-13.3 and the “PGI: subjects who assessed their therapy as efficacious, number” value ([1]; placebo 2) was 7 subjects. The “PGI: subjects who assessed their therapy as efficacious, percentage” value ([1]; placebo 28.6%) was 50.0%.
